Test results from patent US10383948B2, “Anti-cMet antibody drug conjugates and methods for their use” (AbbVie Inc., priority 2016, dated 2019).

How the values were obtained:
SNU-5 = assay: Cytotoxicity assay (CellTiter-Glo, 6 days); assay type: cell-based, human; settings: MET-amplified SNU-5 gastric cancer cells; FIG. 4
Procedure: (§1) Tumor cells were plated at 2000-5000 cells/well in 180 μL growth medium containing 10% FBS in 96-well plates, and cultured at 37° C. in a humidified incubator with 5% C02. The following day, titrations of antibodies or ADCs in 20 μL were added and cells were incubated for 6 days. Cell viability was determined using a CellTiter-Glo Luminescent Cell Viability Assay (Promega) according to the manufacturer's instructions. A non-binding, irrelevant negative control ADC conjugated to MMAE was also included in all assays to confirm that cell killing was antigen dependent.

[1] = test system: Hs746T ABT-700R xenografts; assay: ABT-700-refractory xenograft efficacy; assay type: in vivo, mice; settings: Hs746T ABT-700R xenografts; FIG. 12B
NCI-H820 = assay: Cytotoxicity assay (CellTiter-Glo, 6 days); assay type: cell-based, human; settings: NCI-H820, without MET amplification; FIG. 4C
Procedure: as §1, with “instructions.” for “instructions. A non-binding, irrelevant negative control ADC conjugated to MMAE was also included in all assays to confirm that cell killing was antigen dependent.”
as §1, with “of” for “of antibodies or”, “instructions.” for “instructions. A non-binding, irrelevant negative control ADC conjugated to MMAE was also included in all assays to confirm that cell killing was antigen dependent.”

[2] = test system: Hs746T gastric cancer xenografts; assay: Hs746T xenograft efficacy; settings: parental Hs746T xenografts, initial treatment; FIG. 12A
Procedure: Female SCID, SCID-Beige and nude mice were obtained from Charles River (Wilmington, Mass.) and housed at ten mice per cage. The body weight upon arrival was 20-22 g. Food and water were available ad libitum. Mice were acclimated to the animal facilities for a period of at least one week prior to commencement of experiments. Animals were tested in the light phase of a 12-hr light: 12-hr dark schedule (lights on at 06:00 hours).
Each experimental group included 8-10 animals.
Tumor volumes are depicted as mean±S.E.M.

NCI-H441 = assay: Cytotoxicity assay (CellTiter-Glo, 6 days); assay type: cell-based, human; settings: NCI-H441, without MET amplification; FIG. 4D
Procedure: as §1
as §1, with “of” for “of antibodies or”, “antigen-dependent.” for “antigen dependent.”

Hs746T = assay: Cytotoxicity assay (CellTiter-Glo, 6 days); assay type: cell-based, human; settings: MET-amplified Hs746T gastric cancer cells; FIG. 4
Procedure: as §1
as §1, with “of” for “of antibodies or”, “antigen-dependent.” for “antigen dependent.”

[3] = patients; cited from earlier work

Substance | inhibition of proliferation (SNU-5) | tumor response [1] | inhibition of proliferation (NCI-H820) | tumor response [2] | inhibition of proliferation (NCI-H441) | inhibition of proliferation (Hs746T) | dose not tolerated [3] | dose tolerated [3]
ABT-700: humanized recombinant IgG1 kappa anti-cMet antibody, humanized version of mouse monoclonal antibody 224G11 | inhibited proliferation of cells with MET amplification | refractory to ABT-700 treatment with quick tumor outgrowth on therapy | not cell lines without MET amplification | tumor stasis followed by relapse | not cell lines without MET amplification | inhibited proliferation of cells with MET amplification |  | 
DCDT2980S: an MMAE ADC targeting CD22 |  |  |  |  |  |  | 3.2 mg/kg | 2.4 mg/kg
brentuximab vedotin: Seattle Genetics MMAE ADC with an approximate DAR of 4 |  |  |  |  |  |  | 2.7 mg/kg | 
